Assays:
[1] = cited from earlier work; for ability to alter the course of the disease / immune complexes as measured by rheumatoid factor titers: rheumatoid arthritis
lymphocyte = lymphocyte transformation; format: cell-based
[2] = system: mammalian macrophage membrane; experiment: incorporation of choline into the mammalian macrophage membrane; format: cell-based
methemoglobin = system: methemoglobin; parameters: species or system mice; settings: mouse, in vivo
mice = experiment: acute toxicity as measured by LD50 in mice; format: in vivo; settings: compared with dapsone
Marek's disease = settings: cited from earlier work
[3] = system: chick peritoneal macrophages; settings: Shigeura et al., 1975; cited from earlier work

| Molecule | ability to alter the course of the disease [1] | immune complexes as measured by rheumatoid factor titers [1] | lymphocyte transformation (lymphocyte) | incorporation of choline into the mammalian macrophage membrane [2] | further results |
| --- | --- | --- | --- | --- | --- |
| CC(C)(S)[C@@H](N)C(=O)O [D-penicillamine] | can alter the course of the disease | reducing the immune complexes |  |  |  |
| CC(=O)Oc1ccccc1C(=O)O [aspirin] | unable to alter the course of the disease |  |  |  | symptomatic relief of the acute syndrome characterizing rheumatoid arthritis ([1]; in vivo): effective in providing symptomatic relief of the acute syndrome |
| NC(=O)Nc1ccc(S(=O)(=O)c2ccc(N)cc2)cc1 [1-[4-(4-sulfanilyl)phenyl]urea] |  |  | effect lymphocyte transformation | inhibit the incorporation | methemoglobin formation (methemoglobin): significantly less active in producing this toxic syndrome; acute toxicity as measured by LD50 (mice): less acutely toxic than dapsone; lesion incidence of poultry exposed to Marek's disease (Marek's disease): decreasing lesion incidence; mortality of poultry exposed to Marek's disease (Marek's disease): reducing mortality; incorporation of chloline in chick peritoneal macrophages [3]: inhibit the incorporation |
| Nc1ccc(S(=O)(=O)c2ccc(N)cc2)cc1 [Dapsone, 4,4'-diaminodiphenylsulfone] |  |  | effect lymphocyte transformation | inhibit the incorporation | effectiveness in treating rheumatoid arthritis ([1]; McConkey et al., 1976): effective in treating rheumatoid arthritis |
| gold | can alter the course of the disease | reducing the immune complexes |  |  |  |
